In US10980754B2, “Anti-fungal compounds” (SAINT LOUIS UNIVERSITY, priority 2016, dated 2021):
Values after ≈ are worked out from the molar mass of the structure shown.

Legend:
[1] = system: C. neoformans var grubii, KN99; test: Synergy (checkerboard) assay with Fluconazole or Amphotericin B; type: cell-based; conditions: in combination with either FLC or AMB
Method: Each assay was performed in triplicate and all values are the average of two or more independent assays. The fractional inhibitory concentration index (FICI) model is expressed as ΣFIC=FICA+FICB=MICA′/MICA+MICB′/MICB, where MICA, and MICB are the MIC values of agents A and B used alone and MICA′ and MICB′ are the MICs of agents A and B used in combination.

[2] = system: clinical strains of C. neoformans var grubii, serotype A; test: MIC in two independent clinical strains; type: cell-based; conditions: Cryptococcus neoformans
Method: Strains and media. All inhibition assays were performed with C. neoformans var grubii, KN99 (serotype A, MATα; kindly provided by Jennifer Lodge). Two clinical strains of C. neoformans var grubii, serotype A, were kindly provided by Tamara Doering and Andre Spec. […] Cells were incubated without shaking for 48 hours at 35° C. and cell density was measured at […]. […] Each assay was done in triplicate and all values are the average of two or more independent assays. The data are presented as the average cell density as a percent of DMSO-only treated cells. MICs are reported as the minimal concentration needed to inhibit 80% of C. neoformans growth relative to vehicle-treated controls. Another thirty-seven of the molecules are αHTs (FIG. 4), which have a third contiguous oxygen atom on the troponoid ring.

[3] = system: C. neoformans var grubii, KN99; test: Inhibition of C. neoformans growth, limiting dilution assay (MIC); type: cell-based; conditions: for MIC / MIC80: Cryptococcus neoformans; for MIC80: KN99α, minimal concentration inhibiting 80% of growth relative to vehicle; for inhibition of C. neoformans growth: YNB-02+1% DMSO at 35° C., at 15 and 60 μM
Method: Strains and media. All inhibition assays were performed with C. neoformans var grubii, KN99 (serotype A, MATα; kindly provided by Jennifer Lodge). Two clinical strains of C. neoformans var grubii, serotype A, were kindly provided by Tamara Doering and Andre Spec. […] Each assay was done in triplicate and all values are the average of two or more independent assays. The data are presented as the average cell density as a percent of DMSO-only treated cells. […] However, these conditions are unlike conditions encountered by C. neoformans in mammalian infections, where nutrients are limited, and the pH and temperature are higher than in YPD media. The cryptococcal stress response to low glucose and high pH and temperature may alter its susceptibility to the inhibitors. It is also possible that the enzymes targeted by the inhibitors may render the cell temperature sensitive when inhibited. To better mimic growth in mammals, growth was tested without shaking in nutrient-limited media at 35° C. […] However, as the nutrient-limited media and higher temperature is more similar to mammalian cell growth conditions, these conditions were used for all further assays. […] All values were measured at least two times in independent experiments and the average MIC is reported.

KN99α cells [4] = test: Inhibition under capsule-inducing conditions (MIC); type: cell-based; conditions: Cryptococcus neoformans; YNB-02+1% DMSO, 37° C. with 5% CO2, 48 hours
Method: KN99α cells were grown overnight in YPD at 30° C. with shaking. […] Capsule was visualized using bright-field microscopy as a halo surrounding the yeast cell through India ink exclusion. The screening was conducted in the nutrient-limited media YNB-02 at 35° C. to mimic some aspects of the growth conditions in humans. […] The untreated cells grown in YNB-02 were able to elaborate the capsule (FIG. 7D) compared to cells grown overnight in YPD at 30° C. (FIG. 7C).

[5] = Cytotoxicity in hepatoma cells (MTS); conditions: human, HepDES19 cells, CC50, HepDES19 cells, 72 hours, MTS
Method: HepDES19 cells (1.0×10^4 cells per well) were seeded in 96-well plates and incubated in DMEM with 10% fetal bovine serum (FBS) plus 1% penicillin and streptomycin, 1% nonessential amino acids, and 1% glutamine. The compounds were diluted in the medium at concentrations ranging from 0.78 to 100 μM plus 1% DMSO and added to the cells 48 hours after plating, with each concentration tested in triplicate. Cells were incubated with the compound for 72 hours and cytotoxicity was measured using a mitochondrial metabolic assay with MTS (Promega). The data were transformed to log[inhibitor] and fit to a 4-variable slope curve using GraphPad Prism (v6, www.graphpad.com).
Three days later, the MTS reagent was added for 90 minutes prior to terminating the incubation period and reading the OD480.

KN99α cells [6] = test: Growth inhibition in YPD+1% DMSO at 25° C.; type: cell-based, C. neoformans; conditions: at 60 μM
Method: FIGS. 5A & 5B. Inhibition of KN99α cells by β-thujaplicinol and β-thujaplicin under conditions (FIG. 5A) YPD at 25° C. and (FIG. 5B) YNB-02 at 35° C.
An assay was developed that could cheaply and reproducibly measure inhibition of C. neoformans growth using a 96-well format. C. neoformans growth was initially tested in YPD versus YPD+1% DMSO at 25° C. with shaking for 24 and 48 hours. […] However, these conditions are unlike conditions encountered by C. neoformans in mammalian infections, where nutrients are limited, and the pH and temperature are higher than in YPD media. The cryptococcal stress response to low glucose and high pH and temperature may alter its susceptibility to the inhibitors. It is also possible that the enzymes targeted by the inhibitors may render the cell temperature sensitive when inhibited. To better mimic growth in mammals, growth was tested without shaking in nutrient-limited media at 35° C. First, the cell culture media, RPMI-1640+0.4% glucose+1% DMSO (Sigma) as defined by National Committee for Clinical Laboratory Standards (NCCLS) was tested for anti-fungal susceptibility testing. However, the cells grew very poorly under these conditions. […] (FIG. 5A). However, as the nutrient-limited media and higher temperature is more similar to mammalian cell growth conditions, these conditions were used for all further assays.

KN99α cells [7] = test: MIC assays of hydrolysis products of #284 and p-benzoic acid; type: cell-based, C. neoformans; conditions: dilution series 0.19-50 μM, 48 hours at 35° C.
Method: FIG. 6. […] Values are mean±standard deviation from three replicates.
The solution was mixed by vortexing until a prominent color change (pale yellow to dark orange) was apparent. This reaction was performed in triplicate. One aliquot of the reaction mixture was stored at room temperature, one at 35° C., and one at 40° C. After 24 hours, the reaction mixtures were neutralized with HCl.
This would release a tropothione, possibly in multiple oxidation states, as well as p-benzoic acid, any of which could potentially act as inhibitors.

C. neoformans = test: Fungicidal assay; type: cell-based; conditions: 48 hours exposure at 2×, 4× and 8× the MIC, spotted, 30° C. for 2 days
Method: To test for fungicidal activity, aliquots of cells were removed after 48 hours of growth in the presence of test compounds at 2×, 4×, and 8× the respective MICs and spotted them on YPD plates. The plates were incubated at 30° C. for 2 days and checked for growth. Growth of cells treated with test compounds was compared to FLC-treated cells, which is known to be fungistatic and to AMB-treated cells, which is known to be fungicidal (Klepser, et al., 1998; Mesa-Arango, et al., 2014).
compounds #54 and #284 were evaluated for fungicidal versus fungistatic activity. This analysis was done in a qualitative assay in parallel with FLC, which is known to be fungistatic (Klepser, et al., 1998) and AMB, which is known to be fungicidal (Mesa-Arango, et al., 2014). The MICs were 3 μM (0.9 μg/mL), 1.5 μM (1.4 μg/mL), 12 μM and 0.31 μM for FLC, AMB, #54 and #284 respectively. (FIGS. 8A & 8B).

[8] = 48 h, measured alone, 80% of cells inhibited relative to vehicle, run with synergy and fungicidal assays
[9] = YNB-02+1% DMSO, 35° C., 48 hours

Compound	MIC [3, 8] [µM]	MIC80 [3, 9] [µM]	CC50 at 72 h [5] [µM]	inhibition of C. neoformans growth [3]	inhibition of C. neoformans growth (KN99α cells [6])	cell growth on YPD plates after drug exposure (C. neoformans)	also measured
O=c1ccccc(Br)c1O [Compound 54, 3-bromotropolone]	12	7 (≈ 1.41 µg/mL)	95	–	–	–	FIC index [1]: 2; FIC value [1]: 1; MIC [2]: 6 to 12 µM (≈ 1.21 to 2.41 µg/mL); MIC (KN99α cells [4]): 6 to 12 µM (≈ 1.21 to 2.41 µg/mL)
CC(C)c1ccc(O)c(=O)c(O)c1 [Compound 46, β-thujaplicinol]	–	8 (≈ 1.44 µg/mL)	23	some inhibition	almost completely inhibited	–	MIC [3, 9]: ≤ 15 µM
CC(C)c1cccc(=O)c(O)c1 [Compound 47, β-thujaplicin]	–	21 (≈ 3.45 µg/mL)	66.5	some inhibition	almost completely inhibited	–	–
p-benzoic acid	–	–	–	–	–	–	MIC (KN99α cells [7]): > 50 µM
OC(Cn1cncn1)(Cn1cncn1)c1ccc(F)cc1F [FLC, Fluconazole, reference compound]	3	–	–	–	–	Significant cell growth	MIC ([3]; measured alone, 80% of cells inhibited relative to vehicle, run with synergy and fungicidal assays): 0.9 µg/mL
C[C@@H]1[C@H](O)[C@@H](C)/C=C/C=C/C=C/C=C/C=C/C=C/C=C/[C@H](O[C@@H]2O[C@H](C)[C@@H](O)[C@H](N)[C@@H]2O)C[C@@H]2O[C@](O)(C[C@@H](O)C[C@@H](O)[C@H](O)CC[C@@H](O)C[C@@H](O)CC(=O)O[C@H]1C)C[C@H](O)[C@H]2C(=O)O [AMB, Amphotericin B]	–	–	–	–	–	no cell growth	–
